≈ marks a conversion by molar mass, not a printed value. Where two headings read alike, the source gives them in different places.
Experiments:
[1] = tested on: Mycobacterium tuberculosis H37Ra ITM-M006710 (ATCC 9431); assay: Microdilution broth, modified Microplate Alamar Blue Assay, whole cell growth inhibition; format: cell-based; details: in vitro, Middlebrook 7H9 broth, resazurin; for MIC: Mycobacterium tuberculosis, read-out: MIC Mtb H37Ra
[2] = tested on: Mycobacterium aurum DSM 43999 (ATCC 23366); assay: as above; format: cell-based; details: in vitro, Middlebrook 7H9 broth, resazurin; for MIC: Mycolicibacterium aurum, read-out: MIC Mycobacterium aurum
HepG2 cells = assay: HepG2 cytotoxicity, CellTiter 96 (MTS) assay; format: cell-based, human; details: for IC50: 24 h incubation, > means higher concentration not reproducible due to precipitation, read-out: HepG2 IC50; for SI, selectivity index: IC50 (HepG2)/MIC against Mtb H37Ra (in µM)
[3] = tested on: Mycobacterium smegmatis DSM 43465 (ATCC 607); assay: Microdilution broth, modified Microplate Alamar Blue Assay, whole cell growth inhibition; format: cell-based; details: in vitro, Middlebrook 7H9 broth, resazurin; for MIC: Mycolicibacterium smegmatis, read-out: MIC Mycobacterium smegmatis
[4] = tested on: Aspergillus flavus CCM 8363; assay: Antifungal microdilution broth method (EUCAST); format: cell-based; details: CCM8363, 48 h, standards, read-out: MIC against Aspergillus flavus
[5] = tested on: Candida parapsilosis ATCC 22019, CCM 8260; assay: Antifungal microdilution broth method (EUCAST); format: cell-based; details: Lodderomyces parapsilosis; 48 h, standards; read-out: MIC against C. parapsilosis
[6] = tested on: Candida tropicalis ATCC 750, CCM 8264; assay: Antifungal microdilution broth method (EUCAST); format: cell-based; details: 48 h, standards, read-out: MIC against C. tropicalis
[7] = tested on: Aspergillus fumigatus ATCC 204305; assay: Antifungal microdilution broth method (EUCAST); format: cell-based; details: ATCC204305, 48 h, standards, read-out: MIC against Aspergillus fumigatus
[8] = tested on: Candida krusei ATCC 6258, CCM 8271; assay: Antifungal microdilution broth method (EUCAST); format: cell-based; details: Pichia kudriavzevii; 48 h, standards; read-out: MIC against C. krusei
[9] = tested on: Absidia corymbifera CCM 8077 (Lichtheimia corymbifera); assay: Antifungal microdilution broth method (EUCAST); format: cell-based; details: CCM8077, 48 h, standards, read-out: MIC against Lichtheimia corymbifera
[10] = tested on: Candida albicans ATCC 24433, CCM 8320; assay: Antifungal microdilution broth method (EUCAST); format: cell-based; details: 48 h, standards, read-out: MIC against Candida albicans
[11] = tested on: Trichophyton interdigitale ATCC 9533, CCM 8377; assay: Antifungal microdilution broth method (EUCAST); format: cell-based; details: 72 h, standards, read-out: MIC against Trichophyton interdigitale

Molecule | MIC [1] [µg/mL] | MIC [2] [µg/mL] | IC50 (HepG2 cells; Homo sapiens, HepG2) [µM] | SI, selectivity index (HepG2 cells) | MIC [3] [µg/mL] | other results
O=C(Nc1ccc(O)cc1)c1cnc(Cl)cn1 [Compound 3, 5-Chloro-N-(4-hydroxyphenyl)pyrazine-2-carboxamide] | 62.5 (≈ 250 µM) | ≥ 250 | 350 | 1.40 | ≥ 250 | –
C[C@@H](c1ncncc1F)[C@](O)(Cn1cncn1)c1ccc(F)cc1F [voriconazole, reference compound] | – | – | – | – | – | MIC [4]: > 16 µg/mL; MIC [5]: 8 µg/mL (≈ 22.9 µM); MIC [6]: > 16 µg/mL; MIC [7]: 1 µg/mL (≈ 2.86 µM); MIC [8]: 0.5 µg/mL (≈ 1.43 µM); MIC [9]: > 16 µg/mL; MIC [10]: > 16 µg/mL; MIC [11]: > 16 µg/mL
O=C(Nc1cccc(O)c1)c1cnc(Cl)cn1 [Compound 2, 5-Chloro-N-(3-hydroxyphenyl)pyrazine-2-carboxamide] | 31.2 (≈ 125 µM) | ≥ 500 | > 500 | >3.99 | ≥ 500 | –
5-Chloro-N-(5-chloro-2-hydroxyphenyl)pyrazine-2-carboxamide [Compound 6] | – | – | – | – | – | MIC Mtb H37Ra [1]: ≥500 µg/mL; MIC Mycobacterium aurum [2]: ≥500 µg/mL; IC50 (HepG2 cells): > 250 µM; MIC Mycobacterium smegmatis [3]: ≥500 µg/mL
O=C(Nc1cccc(C(F)(F)F)c1)c1cnc(Cl)cn1 [Compound 1, 5-Chloro-N-(3-(trifluoromethyl)phenyl)pyrazine-2-carboxamide] | 7.81 (≈ 25.9 µM) | ≥ 500 | 124 | 4.78 | ≥ 500 | –
CCCNc1cnc(C(=O)Nc2ccc(Cl)cc2O)cn1 [Compound 6a, N-(4-chloro-2-hydroxyphenyl)-5-(propylamino)pyrazine-2-carboxamide] | ≥ 500 | ≥ 500 | – | – | 3.91 (≈ 12.7 µM) | melting point: 248.9 to 250 °C
CCCCNc1cnc(C(=O)Nc2ccc(Cl)cc2O)cn1 [Compound 6b, 5-(Butylamino)pyrazine-N-(4-chloro-2-hydroxyphenyl)-2-carboxamide] | ≥ 500 | ≥ 500 | > 50 | – | 3.91 (≈ 12.2 µM) | melting point: 221.8 to 225.4 °C

— PMC7180572, “5-Alkylamino-N-phenylpyrazine-2-carboxamides: Design, Preparation, and Antimycobacterial Evaluation” (Molecules, 2020)
